US8951985B2, “Compounds and pharmaceutical compositions for the treatment of viral infections” (Idenix Pharmaceuticals, Inc., priority 2011, dated 2015)
pEC50: −log10 of the molar value. Like-named read-outs stand apart in the source and are kept apart here.

How the values were obtained:
HCV genotype 1b replicon = test: HCV replicon assay (HCV-REPL LUC), luciferase reporter; assay type: cell-based, hepatitis C virus
Method: Huh-7-derived cell line (Zluc) that harbors an HCV genotype 1b replicon and a luciferase reporter gene was grown in Dulbecco's Modified Eagle Medium (DMEM) supplemented with 10% fetal bovine serum, 2 mM GlutaMAX, 1% MEM nonessential amino acids, 100 IU/mL penicillin, 100 μg/mL streptomycin, and 0.5 mg/mL Geneticin® (G418). For dose response testing the cells were seeded in 96-well plates at 7.5×10^3 cells per well in a volume of 50 μl, and incubated at 37° C./5% CO2. Drug solutions were made up freshly in Huh-7 media as 2× stocks. Ten additional 5-fold dilutions were prepared from these stocks in DMEM without G418. At least three hours after Zluc cells were seeded, drug treatment was initiated by adding 50 μL of drug dilutions to the plates in duplicate. […] Cells were then incubated at 37° C./5% CO2. Alternatively compounds were tested at two concentrations (10 nM and 100 nM). […] After 72 hours of incubation, the inhibition of HCV replication was measured by quantification of photons emitted after mono-oxygenation of 5′-fluoroluciferin to oxyfluoroluciferin by firefly luciferase. For this, media was removed from the plates via gentle tapping. Fifty microliters of ONE-glo luciferase assay reagent was added to each well. The plates were shaken gently for 3 min at room temperature and luminescence was measured on a Victor^3 V 1420 multilabel counter (Perkin Elmer) with a 1 second read time using a 700 nm cut-off filter. The EC50 values were calculated from dose response curves from the resulting best-fit equations determined by Microsoft Excel and XLfit 4.1 software.
Compounds presented in the table below were assayed according to the replicon assay described above.

[1] = Cytotoxicity evaluation, CellTiter-Blue Cell Viability Assay; assay type: cell-based; details: human, Zluc cells (Huh-7-derived HCV replicon cell line)
Method: (§1) For cytotoxicity evaluation, Zluc cells were treated with compound as described above, and cell viability was monitored using the CellTiter-Blue Cell Viability Assay (Promega) by adding 20 μL of the assay solution to each well. The plates were then incubated at 37° C./5% CO2 for at least 3 hours. Fluorescence was detected in plates using excitation and emission wavelengths of 560 and 590 nm, respectively, in a Victor^3 V 1420 multilabel counter (Perkin Elmer) and CC50 values were determined using Microsoft Excel and XLfit 4.1 software.

[2] = test system: Zluc cells (Huh-7-derived cell line); test: as above; assay type: cell-based; details: read-out: HCV Replicon CC50
Method: as §1

[3] = Hepatitis C virus, Huh-7, 72 h, read-out: HCV Replicon EC50, Zluc cells (Huh-7, HCV genotype 1b replicon, luciferase), 72 hours incubation

Row | SMILES | pEC50 (HCV genotype 1b replicon; [3]) | CC50 [1] [µM] | pEC50 (HCV genotype 1b replicon; read-out: HCV Replicon EC50, Zluc cells (Huh-7, HCV genotype 1b replicon, luciferase), 72 hours incubation) | CC50 [2] [µM]
1 | COc1nc(N)nc2c1ncn2[C@@H]1O[C@H](COP(=O)(N[C@@H](CC(C)C)C(=O)OC(C)C)OC(C)C(=O)OCc2ccccc2)[C@@H](O)[C@@]1(C)O (stereo partly shown) [Compound 4] | 6.00 to 6.30 | 50 to 99 | – | –
2 | CCOC(=O)COP(=O)(N[C@@H](CCSC)C(=O)OCC)OC[C@H]1O[C@@H](n2cnc3c(OC)nc(N)nc32)[C@](C)(O)[C@@H]1O (mixture of isomers) [Compound 9] | 5.30 to 6.00 | ≥ 100 | – | –
3 | CCOC(=O)COP(=O)(N[C@@H](CC(C)C)C(=O)OC(C)C)OC[C@H]1O[C@@H](n2cnc3c(OC)nc(N)nc32)[C@](C)(O)[C@@H]1O (single isomer, unassigned) [Compound 11b] | – | – | > 6.30 | 50 to 99
4 | CCOC(=O)COP(=O)(N[C@H](C(=O)OC)C(C)C)OC[C@H]1O[C@@H](n2cnc3c(OCC)nc(N)nc32)[C@](C)(O)[C@@H]1O (mixture of isomers) [Compound 7] | 5.30 to 6.00 | ≥ 100 | – | –
5 | CCOC(=O)COP(=O)(NC(C(=O)OCC)c1ccccc1)OC[C@H]1O[C@@H](n2cnc3c(OC)nc(N)nc32)[C@](C)(O)[C@@H]1O (stereo partly shown) [Compound 8] | 5.00 to 5.30 | ≥ 100 | – | –
6 | CCOC(=O)COP(=O)(N[C@@H](CC(C)C)C(=O)OC(C)C)OC[C@H]1O[C@@H](n2cnc3c(OC)nc(N)nc32)[C@](C)(O)[C@@H]1O (single isomer, unassigned) [Compound 11a] | 5.30 to 6.00 | ≥ 100 | – | –
7 | COc1nc(N)nc2c1ncn2[C@@H]1O[C@H](COP(=O)(N[C@@H](C)C(=O)OC(C)C)OCC(=O)OC(C)C)[C@@H](O)[C@@]1(C)O (stereo partly shown) [Compound 1] | 5.30 to 6.00 | ≥ 100 | – | –
8 | COc1nc(N)nc2c1ncn2[C@@H]1O[C@H](COP(=O)(N[C@@H](CC(C)C)C(=O)OC(C)C)OCCCC(=O)NCc2ccc(F)cc2)[C@@H](O)[C@@]1(C)O (stereo partly shown) [Compound 5] | 5.00 to 5.30 | ≥ 100 | – | –
9 | COc1nc(N)nc2c1ncn2[C@@H]1O[C@H](COP(=O)(N[C@@H](CC(C)C)C(=O)OC(C)C)OCC(=O)NCc2ccc(F)cc2)[C@@H](O)[C@@]1(C)O (mixture of isomers) [Compound 10] | 5.30 to 6.00 | ≥ 100 | – | –
10 | CCOC(=O)[C@H](Cc1ccccc1)NP(=O)(OCC(=O)OC(C)C)OC[C@H]1O[C@@H](n2cnc3c(OC)nc(N)nc32)[C@](C)(O)[C@@H]1O (mixture of isomers) [Compound 2] | 6.00 to 6.30 | ≥ 100 | – | –
11 | CCOC(=O)COP(=O)(N[C@@H](CC(C)C)C(=O)OC(C)C)OC[C@H]1O[C@@H](n2cnc3c(OC)nc(N)nc32)[C@](C)(O)[C@@H]1O (stereo partly shown) [Compound 11] | > 6.30 | ≥ 100 | – | –
12 | CCOC(=O)[C@@H](NP(=O)(OCCC(=O)OC(C)(C)C)OC[C@H]1O[C@@H](n2cnc3c(OC)nc(N)nc32)[C@](C)(O)[C@@H]1O)C(C)C (mixture of isomers) [Compound 6] | 5.30 to 6.00 | ≥ 100 | – | –
13 | CCOC(=O)COP(=O)(N[C@H](Cc1ccccc1)C(=O)OC(C)C)OC[C@H]1O[C@@H](n2cnc3c(OC)nc(N)nc32)[C@](C)(O)[C@@H]1O (stereo partly shown) [Compound 3] | 5.00 to 5.30 | ≥ 100 | – | –
14 | CCOC(=O)COP(=O)(N[C@@H](CC(C)C)C(=O)OC(C)C)OC[C@H]1O[C@@H](n2cnc3c(OC)nc(N)nc32)[C@](C)(F)[C@@H]1O (mixture of isomers) [Compound 12] | 6.00 to 6.30 | ≥ 100 | – | –
